Legend:
bedstraw = assay: Test B pre/postemergence bedstraw; type: in vivo, Galium aparine
In short: (§1)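 Test chemicals in a non-phytotoxic solvent mixture with surfactant were sprayed preemergence onto planted seeds and postemergence onto plants 2 to 18 cm tall (1- to 4-leaf stage). After twelve to sixteen days in a greenhouse, injury was visually rated against untreated controls from 0 (no effect) to 10 (complete control).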

blackgrass = assay: Test B pre/postemergence blackgrass; type: in vivo, Alopecurus myosuroides
In short: as §1

surinam grass = assay: Test B pre/postemergence surinam grass; type: in vivo, Brachiaria decumbens
In short: as §1

cocklebur = assay: Test B pre/postemergence cocklebur; type: in vivo, Xanthium strumarium
In short: as §1

corn = assay: Test B pre/postemergence corn; type: in vivo, Zea mays
In short: as §1

crabgrass = assay: Test B pre/postemergence crabgrass; type: in vivo, Digitaria sanguinalis
In short: as §1

giant foxtail = assay: Test B pre/postemergence giant foxtail; type: in vivo, Setaria faberii
In short: as §1

morningglory = assay: Test B pre/postemergence morningglory; type: in vivo, Ipomoea hederacea
In short: as §1

pigweed = assay: Test B pre/postemergence pigweed; type: in vivo, Amaranthus retroflexus
In short: as §1

rape = assay: Test B pre/postemergence rape; type: in vivo, Brassica napus
In short: as §1

soybean = assay: Test B pre/postemergence soybean; type: in vivo, Glycine max
In short: as §1

sugar beet = assay: Test B pre/postemergence sugar beet; type: in vivo, Beta vulgaris
In short: as §1

velvetleaf = assay: Test B pre/postemergence velvetleaf; type: in vivo, Abutilon theophrasti
In short: as §1

wheat = assay: Test B pre/postemergence wheat; type: in vivo, Triticum aestivum
In short: as §1

wild oat = assay: Test B pre/postemergence wild oat; type: in vivo, Avena fatua
In short: as §1

purple nutsedge = assay: Test B pre/postemergence purple nutsedge; type: in vivo, Cyperus rotundus
In short: as §1

[1] = Postemergence, Rate 62 g/ha, scale of 0 to 10, 0 is no effect, 10 is complete control
[2] = Postemergence, Rate 125 g/ha, scale 0 to 10, 0 is no effect, 10 is complete control
[3] = Postemergence, Rate 500 g/ha, scale 0 to 10, 0 is no effect, 10 is complete control
[4] = Preemergence, Rate 125 g/ha, scale 0 to 10, 0 is no effect, 10 is complete control
[5] = Preemergence, Rate 500 g/ha, scale of 0 to 10 where 0 is no effect and 10 is complete control
[6] = Preemergence, Rate 62 g/ha, scale 0 to 10 (0 no effect, 10 complete control)
[7] = Rate 250 g/ha, Postemergence, scale of 0 to 10 where 0 is no effect and 10 is complete control

## COC(=O)CCCn1c(=O)on(C(=O)N(c2ccc(Cl)cc2)C(C)C)c1=O [Compound 543]
bedstraw; [1]
  Bedstraw plant response rating: 0
bedstraw; [2]
  Bedstraw plant response rating: 0
bedstraw; [3]
  Plant response rating, Bedstraw: 2
bedstraw; [4]
  Bedstraw plant response rating: 0
bedstraw; Preemergence, Rate 250 g/ha
  Bedstraw plant response rating (0 to 10 scale): 0
bedstraw; [5]
  Bedstraw plant response rating: 0
blackgrass; [1]
  Blackgrass plant response rating: 0
blackgrass; [2]
  Blackgrass plant response rating: 0
blackgrass; [3]
  Plant response rating, Blackgrass: 2
blackgrass; [6]
  Blackgrass plant response rating: 0
blackgrass; [4]
  Blackgrass plant response rating: 0
blackgrass; Preemergence, Rate 250 g/ha
  Blackgrass plant response rating (0 to 10 scale): 0
blackgrass; [5]
  Blackgrass plant response rating: 2
blackgrass; [7]
  Plant response rating, Blackgrass: 0
Surinam grass; [1]
  B. signalgrass plant response rating: 0
Surinam grass; [2]
  B. signalgrass plant response rating: 0
Surinam grass; [3]
  Plant response rating, B. signalgrass: 3
Surinam grass; [6]
  B. signalgrass plant response rating: 0
Surinam grass; [4]
  B. signalgrass plant response rating: 4
Surinam grass; Preemergence, Rate 250 g/ha
  B. signalgrass plant response rating (0 to 10 scale, 0 is no effect, 10 is complete control): 4
Surinam grass; [5]
  B. signalgrass plant response rating: 6
Surinam grass; [7]
  Plant response rating, B. signalgrass: 3
cocklebur; [1]
  Cocklebur plant response rating: 0
cocklebur; [2]
  Cocklebur plant response rating: 0
cocklebur; [3]
  Plant response rating, Cocklebur: 1
cocklebur; [4]
  Cocklebur plant response rating: 0
cocklebur; Preemergence, Rate 250 g/ha
  Cocklebur plant response rating (0 to 10 scale): 0
cocklebur; [5]
  Cocklebur plant response rating: 10
cocklebur; [7]
  Plant response rating, Cocklebur: 0
corn; [1]
  Corn plant response rating: 0
corn; [2]
  Corn plant response rating: 0
corn; [3]
  Plant response rating, Corn: 0
corn; [6]
  Corn plant response rating: 0
corn; [4]
  Corn plant response rating: 0
corn; Preemergence, Rate 250 g/ha
  Corn plant response rating (0 to 10 scale): 0
corn; [5]
  Corn plant response rating: 0
corn; [7]
  Plant response rating, Corn: 0
crabgrass; [1]
  Crabgrass plant response rating: 0
crabgrass; [3]
  Plant response rating, Crabgrass: 7
crabgrass; [6]
  Crabgrass plant response rating: 4
crabgrass; [4]
  Crabgrass plant response rating: 4
crabgrass; Preemergence, Rate 250 g/ha
  Crabgrass plant response rating (0 to 10 scale): 6
crabgrass; [7]
  Plant response rating, Crabgrass: 3
Giant foxtail; [1]
  Giant foxtail plant response rating: 0
Giant foxtail; [2]
  Giant foxtail plant response rating: 0
Giant foxtail; [3]
  Plant response rating, Giant foxtail: 3
Giant foxtail; [6]
  Giant foxtail plant response rating: 3
Giant foxtail; [4]
  Giant foxtail plant response rating: 3
Giant foxtail; Preemergence, Rate 250 g/ha
  Giant foxtail plant response rating (0 to 10 scale): 9
Giant foxtail; [5]
  Giant foxtail plant response rating: 9
Giant foxtail; [7]
  Plant response rating, Giant foxtail: 0
morningglory; [1]
  Morningglory plant response rating: 1
morningglory; [2]
  Morningglory plant response rating: 2
morningglory; [3]
  Plant response rating, Morningglory: 7
morningglory; [6]
  Morningglory plant response rating: 0
morningglory; [4]
  Morningglory plant response rating: 0
morningglory; Preemergence, Rate 250 g/ha
  Morningglory plant response rating (0 to 10 scale): 0
morningglory; [5]
  Morningglory plant response rating: 0
morningglory; [7]
  Plant response rating, Morningglory: 4
pigweed; [1]
  Redroot pigweed plant response rating: 0
pigweed; [2]
  Redroot pigweed plant response rating: 0
pigweed; [3]
  Plant response rating, Redroot pigweed: 0
pigweed; [6]
  Redroot pigweed plant response rating: 7
pigweed; [4]
  Redroot pigweed plant response rating: 7
pigweed; Preemergence, Rate 250 g/ha
  Redroot pigweed plant response rating (0 to 10 scale): 9
pigweed; [7]
  Plant response rating, Redroot pigweed: 0
rape; [1]
  Rape plant response rating: 0
rape; [2]
  Rape plant response rating: 0
rape; [3]
  Plant response rating, Rape: 0
rape; [6]
  Rape plant response rating: 0
rape; [4]
  Rape plant response rating: 0
rape; Preemergence, Rate 250 g/ha
  Rape plant response rating (0 to 10 scale): 0
rape; [5]
  Rape plant response rating: 0
rape; [7]
  Plant response rating, Rape: 0
soybean; [1]
  Soybean plant response rating: 0
soybean; [2]
  Soybean plant response rating: 2
soybean; [3]
  Plant response rating, Soybean: 2
soybean; [6]
  Soybean plant response rating: 0
soybean; [4]
  Soybean plant response rating: 0
soybean; Preemergence, Rate 250 g/ha
  Soybean plant response rating (0 to 10 scale): 2
soybean; [5]
  Soybean plant response rating: 2
soybean; [7]
  Plant response rating, Soybean: 2
Sugar beet; [1]
  Sugarbeets plant response rating: 0
Sugar beet; [2]
  Sugarbeets plant response rating: 0
Sugar beet; [3]
  Plant response rating, Sugarbeets: 3
Sugar beet; [6]
  Sugarbeets plant response rating: 4
Sugar beet; [4]
  Sugarbeets plant response rating: 5
Sugar beet; Preemergence, Rate 250 g/ha
  Sugarbeets plant response rating (0 to 10 scale): 6
Sugar beet; [7]
  Plant response rating, Sugarbeets: 2
velvetleaf; [1]
  Velvetleaf plant response rating: 0
velvetleaf; [2]
  Velvetleaf plant response rating: 0
velvetleaf; [3]
  Plant response rating, Velvetleaf: 3
velvetleaf; [6]
  Velvetleaf plant response rating: 0
velvetleaf; [4]
  Velvetleaf plant response rating: 0
velvetleaf; Preemergence, Rate 250 g/ha
  Velvetleaf plant response rating (0 to 10 scale): 0
velvetleaf; [5]
  Velvetleaf plant response rating: 0
velvetleaf; [7]
  Plant response rating, Velvetleaf: 0
wheat; [1]
  Wheat plant response rating: 0
wheat; [2]
  Wheat plant response rating: 0
wheat; [3]
  Plant response rating, Wheat: 0
wheat; [6]
  Wheat plant response rating: 0
wheat; [4]
  Wheat plant response rating: 0
wheat; Preemergence, Rate 250 g/ha
  Wheat plant response rating (0 to 10 scale): 0
wheat; [5]
  Wheat plant response rating: 0
wheat; [7]
  Plant response rating, Wheat: 0
Wild oat; [1]
  Wild oats plant response rating: 0
Wild oat; [2]
  Wild oats plant response rating: 0
Wild oat; [3]
  Plant response rating, Wild oats: 3
Wild oat; [6]
  Wild oats plant response rating: 0
Wild oat; [4]
  Wild oats plant response rating: 0
Wild oat; Preemergence, Rate 250 g/ha
  Wild oats plant response rating (0 to 10 scale): 0
Wild oat; [5]
  Wild oats plant response rating: 0
Wild oat; [7]
  Plant response rating, Wild oats: 0
Purple nutsedge; [1]
  Nutsedge plant response rating: 0
Purple nutsedge; [2]
  Nutsedge plant response rating: 0
Purple nutsedge; [3]
  Plant response rating, Nutsedge: 0
Purple nutsedge; [6]
  Nutsedge plant response rating: 0
Purple nutsedge; [4]
  Nutsedge plant response rating: 0
Purple nutsedge; Preemergence, Rate 250 g/ha
  Nutsedge plant response rating (0 to 10 scale): 0
Purple nutsedge; [5]
  Nutsedge plant response rating: 8
Purple nutsedge; [7]
  Plant response rating, Nutsedge: 0
